Source: BindingDB's records for doi:10.7270/Q21G0K51 (University of Carthage, 2017)

Columns and labels:
[1] = molecular target: Acetylcholinesterase (Electrophorus electricus, UniProt O42275); experiment: Cholinesterase Activity Assay
Experimental: (§1) The eight synthesized dialkyl-3-cyanopropylphosphates (3a-h) were dissolved in0.01 M dimethyl sulphoxide and then diluted in demineralized water to 1 mM and 0.1 mM.

[2] = molecular target: Carboxylic ester hydrolase (Equus caballus, UniProt Q9N1N9); experiment: Cholinesterase Activity Assay
Sequence of Carboxylic ester hydrolase (Q9N1N9 whole entry): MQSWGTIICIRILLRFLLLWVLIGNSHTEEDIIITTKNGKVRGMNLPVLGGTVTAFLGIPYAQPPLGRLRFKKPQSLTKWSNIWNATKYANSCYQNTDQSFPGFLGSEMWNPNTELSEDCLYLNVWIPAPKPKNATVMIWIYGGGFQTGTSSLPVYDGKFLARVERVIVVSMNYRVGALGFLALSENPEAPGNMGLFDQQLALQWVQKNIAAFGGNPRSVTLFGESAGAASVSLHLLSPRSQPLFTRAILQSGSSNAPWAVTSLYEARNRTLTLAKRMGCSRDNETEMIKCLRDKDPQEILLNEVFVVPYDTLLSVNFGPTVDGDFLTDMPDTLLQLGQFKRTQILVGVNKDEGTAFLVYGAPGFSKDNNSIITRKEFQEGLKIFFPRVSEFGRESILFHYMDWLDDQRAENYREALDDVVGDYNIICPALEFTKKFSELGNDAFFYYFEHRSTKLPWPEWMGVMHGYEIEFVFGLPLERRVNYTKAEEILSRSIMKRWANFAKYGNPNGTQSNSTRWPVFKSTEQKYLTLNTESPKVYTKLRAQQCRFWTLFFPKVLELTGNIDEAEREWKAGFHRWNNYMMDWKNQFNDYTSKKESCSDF
Experimental: as §1

Sequence of Acetylcholinesterase (O42275 whole entry): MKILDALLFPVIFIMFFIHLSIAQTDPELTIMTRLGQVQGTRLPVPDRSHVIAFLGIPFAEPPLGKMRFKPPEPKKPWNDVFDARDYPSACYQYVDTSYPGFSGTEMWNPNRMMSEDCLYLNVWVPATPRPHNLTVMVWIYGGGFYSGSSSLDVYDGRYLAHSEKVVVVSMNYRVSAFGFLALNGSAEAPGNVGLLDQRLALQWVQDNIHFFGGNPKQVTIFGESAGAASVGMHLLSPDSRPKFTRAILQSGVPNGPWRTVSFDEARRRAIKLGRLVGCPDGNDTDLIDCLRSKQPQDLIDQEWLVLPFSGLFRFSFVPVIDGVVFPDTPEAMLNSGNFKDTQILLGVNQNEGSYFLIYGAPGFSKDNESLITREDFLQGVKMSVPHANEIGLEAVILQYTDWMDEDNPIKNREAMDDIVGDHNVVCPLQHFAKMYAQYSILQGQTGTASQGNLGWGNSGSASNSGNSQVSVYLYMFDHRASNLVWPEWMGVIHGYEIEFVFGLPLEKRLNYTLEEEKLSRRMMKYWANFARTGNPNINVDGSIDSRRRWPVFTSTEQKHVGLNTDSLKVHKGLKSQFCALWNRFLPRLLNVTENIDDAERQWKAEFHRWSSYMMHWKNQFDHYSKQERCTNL

| Structure (SMILES) | IC50 [1] | IC50 [2] |
| --- | --- | --- |
| CCOP(=O)(OCC)OC(CCC#N)c1ccc(OC)cc1 (stereo unspecified) [Diethyl-3-cyano-1-(4-methoxyphenyl)propylphosphate (3e)] | 53.7 µM | 20.7 µM |
| CCOP(=O)(OCC)OC(CCC#N)c1ccc(C)cc1 (stereo unspecified) [Diethyl-3-cyano-1-p-tolylpropylphosphate (3c)] | 9.61 µM | 5.96 µM |
| COP(=O)(OC)OC(CCC#N)c1ccc(C)cc1 (stereo unspecified) [Dimethyl-3-cyano-1-p-tolylpropylphosphate (3d)] | 17.3 µM | 16 µM |
| COP(=O)(OC)OC(c1ccccc1)C(C)CC#N (stereo unspecified) [Dimethyl-3-cyano-2-methyl-1-phenylpropylphosphate (3h)] | 29.5 µM | 20.6 µM |
| COc1ccc(C(CCC#N)OP(=O)(OC)OC)cc1 (stereo unspecified) [Dimethyl-3-cyano-1-(4-methoxyphenyl)propylphosphate (3f)] | 36.8 µM | 23.3 µM |
| CCOP(=O)(OCC)OC(c1ccccc1)C(C)CC#N (stereo unspecified) [Diethyl-3-cyano-2-methyl-1-phenylpropylphosphate (3g)] | 35.8 µM | 17.8 µM |
| CCOP(=O)(OCC)OC(CCC#N)c1ccccc1 (stereo unspecified) [Diethyl-3-cyano-1-phenylpropylphosphate (3a)] | 33.6 µM | 18.1 µM |
| COP(=O)(OC)OC(CCC#N)c1ccccc1 (stereo unspecified) [Dimethyl-3-cyano-1-phenylpropylphosphate (3b)] | 31.4 µM | 19.3 µM |
